Test results: ChEMBL document CHEMBL4825714, “Hinge Binder Scaffold Hopping Identifies Potent Calcium/Calmodulin-Dependent Protein Kinase Kinase 2 (CAMKK2) Inhibitor Chemotypes” (J Med Chem, 2021)
Converted amounts (≈) assume the structure as drawn.

Assay: Solubility of the compound
Type: physicochemical

| solubility [µg/mL] | SMILES |
| --- | --- |
| 70.4 (≈ 178 µM) | O=C(O)c1ccc(-c2ncnc3ccc(-c4ccccc4)cc23)cc1C1CCCC1 |
| 42 (≈ 110 µM) | O=C(O)c1ccc(-c2cnn3ccc(-c4ccccc4)cc23)cc1C1CCCC1 |
| 64.4 (≈ 203 µM) | O=C(O)c1ccc(-c2ccnc3ccccc23)cc1C1CCCC1 |
| 62.6 (≈ 193 µM) | O=C(O)c1ccc(-c2ncnc3sccc23)cc1C1CCCC1 |
| 10.6 (≈ 29.5 µM) | O=C(O)c1ccc(-c2ccnc(Nc3ccccc3)n2)cc1C1CCCC1 |
| 40 (≈ 125 µM) | Cn1ccc2c(-c3ccc(C(=O)O)c(C4CCCC4)c3)ccnc21 |
| 1.5 (≈ 3.75 µM) | O=C(O)c1ccc(-c2csc3ncc(-c4ccccc4)cc23)cc1C1CCCC1 |
| 19.4 (≈ 72.3 µM) | O=C(O)c1ccc(-c2ccncn2)cc1C1CCCC1 |
| 38 (≈ 96.6 µM) | O=C(O)c1ccc(-c2ccnc3ccc(-c4ccccc4)cc23)cc1C1CCCC1 |
| 2 (≈ 5.23 µM) | O=C(O)c1ccc(-c2c[nH]c3ncc(-c4ccccc4)cc23)cc1C1CCCC1 [GSK-650394] |
